In ChEMBL document CHEMBL3621110, “Discovery and Development of the Aryl O-Sulfamate Pharmacophore for Oncology and Women's Health” (J Med Chem, 2015):
Each block holds one molecule with its values, some of them ahead of it.

Legend:
[1] = tested on: 4T1; experiment: animal or person; assay type: functional; conditions: Mus musculus
[2] = in vivo; conditions: MF1, mouse
[3] = in vivo; conditions: MF1, mouse; remark: listed apart in the source
[4] = tested on: MCF7; experiment: animal or person; assay type: functional, Homo sapiens; conditions: Mus musculus, MCF7, po
[5] = tested on: 4T1; experiment: animal or person; assay type: functional; conditions: Mus musculus; remark: listed apart in the source
[6] = in vivo; conditions: mouse, po, 10 mg/kg
[7] = in vivo; conditions: MF1, mouse; remark: listed apart in the source
[8] = tested on: MDA-MB-231; experiment: animal or person; assay type: functional, Homo sapiens; conditions: Mus musculus
[9] = tested on: MCF7; experiment: animal or person; assay type: functional, Homo sapiens; conditions: Mus musculus, MCF7, po; remark: listed apart in the source
[10] = tested on: MDA-MB-231; experiment: animal or person; assay type: functional, Homo sapiens; conditions: Mus musculus; remark: listed apart in the source
[11] = in vivo; conditions: MF1, mouse; remark: listed apart in the source
[12] = target: T1, Steryl-sulfatase (Homo sapiens, UniProt P08842); set-up: species or system Placenta, Microsome
T1 sequence (P08842 whole entry): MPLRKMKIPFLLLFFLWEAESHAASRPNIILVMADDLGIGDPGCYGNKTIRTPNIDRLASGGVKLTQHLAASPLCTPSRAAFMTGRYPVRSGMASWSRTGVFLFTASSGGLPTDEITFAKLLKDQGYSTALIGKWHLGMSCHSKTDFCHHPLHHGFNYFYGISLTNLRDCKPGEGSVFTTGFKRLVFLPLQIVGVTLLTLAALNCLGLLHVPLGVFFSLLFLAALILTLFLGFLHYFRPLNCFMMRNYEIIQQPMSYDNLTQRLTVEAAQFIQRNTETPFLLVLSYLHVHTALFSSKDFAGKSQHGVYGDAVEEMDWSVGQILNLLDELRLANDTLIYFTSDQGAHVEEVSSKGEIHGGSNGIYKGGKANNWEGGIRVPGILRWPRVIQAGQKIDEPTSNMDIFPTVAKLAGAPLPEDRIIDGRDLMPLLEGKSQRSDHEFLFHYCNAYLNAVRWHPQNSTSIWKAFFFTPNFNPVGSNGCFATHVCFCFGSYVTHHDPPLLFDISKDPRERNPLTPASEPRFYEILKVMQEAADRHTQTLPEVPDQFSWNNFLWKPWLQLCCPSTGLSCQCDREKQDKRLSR

[13] = tested on: A2780cisR; experiment: cells; assay type: functional, cell-based; conditions: Homo sapiens
[14] = cells; assay type: functional, cell-based; conditions: Homo sapiens, PC-3
[15] = tested on: MCF7; experiment: cells; assay type: functional; conditions: Homo sapiens
[16] = cells; assay type: functional, cell-based; conditions: Homo sapiens, A2780 ADR
[17] = tested on: LNCaP; experiment: cells; assay type: functional, cell-based; conditions: Homo sapiens
[18] = tested on: MCF7; experiment: cells; assay type: functional; conditions: Homo sapiens; remark: listed apart in the source
[19] = target: T1, Steryl-sulfatase; assay type: microsomes, Placenta, Microsome
[20] = tested on: MDA-MB-231; experiment: cells; assay type: functional; conditions: Homo sapiens
[21] = tested on: DU-145; experiment: cells; assay type: functional; conditions: Homo sapiens
[22] = species: Rattus norvegicus; experiment: animal or person; assay type: functional; conditions: Wistar, po, 3 h
[23] = target: T1, Steryl-sulfatase; assay type: cell-based, JEG-3
[24] = species: Rattus norvegicus; experiment: animal or person; assay type: functional; conditions: Wistar, po, 3 h; remark: listed apart in the source
[25] = species: Rattus norvegicus; experiment: animal or person; assay type: functional; conditions: Liver, po, 120 h
[26] = tested on: MDA-MB-231; experiment: cells; assay type: functional, cell-based; conditions: Homo sapiens
[27] = tested on: MCF7; experiment: cells; assay type: functional, cell-based; conditions: Homo sapiens
[28] = target: T1, Steryl-sulfatase; assay type: cell-based, MCF7

Structure (SMILES): COc1cc2c(cc1OS(N)(=O)=O)CC[C@@H]1[C@@H]2CC[C@]2(C)[C@@H](OS(N)(=O)=O)CC[C@@H]12
inhibition in vivo at 20 mg/kg/day [1]: 80.4% | LD50 [2]: 30 mg/kg | selectivity ratio [3]: 4 | inhibition in vivo at 20 mg/kg [4]: 52% | inhibition in vivo at 20 mg/kg/day [5]: 35% | bioavailability at 24 h [6]: 85% | selectivity ratio [7]: 3 | ED50 [8]: 20 mg/kg | inhibition in vivo at 5 mg/kg [9]: 46% | ED50 [10]: 10 mg/kg | LD50 [11]: 80 mg/kg

Structure (SMILES): COc1cc2c(cc1OS(N)(=O)=O)CC[C@@H]1[C@@H]2CC[C@]2(C)C(=O)CC[C@@H]12
IC50 [12]: 30 nM | IC50 [13]: 100 nM | IC50 [14]: 100 nM | inhibition at 1 µM [15]: 52% | IC50 [16]: 100 nM | IC50 [17]: 100 nM | GI50 [18]: 300 nM

Structure (SMILES): C[C@]12CC[C@@H]3c4ccc(OS(N)(=O)=O)cc4CC[C@H]3[C@@H]1CC(=O)NC2=O
IC50 [19]: 20 nM

IC50 [12]: 1 nM
Structure (SMILES): NS(=O)(=O)Oc1ccc2c3c(c(=O)oc2c1)CCCCCCCC3

Structure (SMILES): CC(C)(C)c1ccc(CN2C(=O)C[C@H]3[C@@H]4CCc5cc(OS(N)(=O)=O)ccc5[C@H]4CC[C@]3(C)C2=O)cc1
IC50 [19]: 23 nM

IC50 [12]: 2.4 nM
Structure (SMILES): NS(=O)(=O)Oc1ccc2c3c(c(=O)oc2c1)CCCCCCC3

GI50 [20]: 40 nM | GI50 [21]: 40 nM
Structure (SMILES): COc1cc2c(cc1OS(N)(=O)=O)CCN(Cc1cc(Cl)c(OC)c(OC)c1)C2

Structure (SMILES): C=CCN1C(=O)C[C@H]2[C@@H]3CCc4cc(OS(N)(=O)=O)ccc4[C@H]3CC[C@]2(C)C1=O
IC50 [19]: 75 nM

IC50 [23]: 1200 nM
Structure (SMILES): N#Cc1ccc(N(CCSc2ccc(OS(N)(=O)=O)c(Cl)c2)n2cnnc2)cc1
inhibition in vivo at 10 mg/kg [22]: 92% | inhibition in vivo at 10 mg/kg [24]: 98%

GI50 [20]: 269 nM | GI50 [21]: 299 nM
Structure (SMILES): COc1ccc(F)c(CN2Cc3cc(OC)c(OS(N)(=O)=O)cc3CC2C)c1 (stereo unspecified)

IC50 [12]: 60 nM
Structure (SMILES): NS(=O)(=O)Oc1ccc2c3c(c(=O)oc2c1)CCCCCCCCCC3

GI50 [20]: 160 nM | GI50 [21]: 189 nM
Structure (SMILES): COc1ccc(OC)c(CN2Cc3cc(OC)c(OS(N)(=O)=O)cc3CC2C)c1 (stereo unspecified)

GI50 [20]: 281 nM | GI50 [21]: 286 nM
Structure (SMILES): CCC1Cc2cc(OS(N)(=O)=O)c(OC)cc2CN1Cc1cccc(OC)c1 (stereo unspecified)

Structure (SMILES): C[C@]12CC[C@@H]3c4ccc(OS(N)(=O)=O)cc4CC[C@H]3[C@@H]1CC(=O)N(Cc1cccnc1)C2=O
IC50 [19]: 1 nM | inhibition in vivo at 10 mg/kg/day [25]: 99%

GI50 [20]: 300 nM | GI50 [21]: 360 nM
Structure (SMILES): COc1cc2c(cc1OS(N)(=O)=O)CCN(Cc1cc(OC)c(OC)c(OC)c1)C2C (stereo unspecified)

Structure (SMILES): CCCCN1C(=O)C[C@H]2[C@@H]3CCc4cc(OS(N)(=O)=O)ccc4[C@H]3CC[C@]2(C)C1=O
IC50 [19]: 382 nM

IC50 [12]: 370 nM
Structure (SMILES): NS(=O)(=O)Oc1ccc2c3c(c(=O)oc2c1)CCCCCCCCCCCCC3

IC50 [26]: 80 nM | IC50 [27]: 70 nM
Structure (SMILES): COc1cc2c(cc1OS(N)(=O)=O)CC[C@@H]1[C@@H]2CC[C@]2(C)[C@@H](CC#N)CC[C@@H]12
inhibition in vivo at 20 mg/kg [4]: 22%

IC50 [28]: 10 nM
Structure (SMILES): CC/C(=C(/CC)c1ccc(OS(N)(=O)=O)cc1)c1ccc(OS(N)(=O)=O)cc1

IC50 [23]: 26 nM
Structure (SMILES): N#Cc1ccc(N(Cc2ccc3c(Cl)c(OS(N)(=O)=O)ccc3c2)n2cnnc2)cc1
inhibition in vivo at 10 mg/kg [22]: 93% | inhibition in vivo at 10 mg/kg [24]: 93%

IC50 [23]: > 10000 nM
Structure (SMILES): Cn1nnc2ccc(C(c3ccc(OS(N)(=O)=O)cc3)n3cncn3)cc21 (stereo unspecified)

GI50 [20]: 30 nM | GI50 [21]: 20 nM
Structure (SMILES): CCc1cc2c(cc1OS(N)(=O)=O)CCN(Cc1cc(Br)c(OC)c(OC)c1)C2
